# Laboratory results published in patent US20070042976A1, “Method of treating cosmetic and dermatologic conditions by a demethylating agent” (priority 2005, published 2007).
# Marks after values point to notes of the source that are not given here.
# Legend:
# alpha 2 collagen gene [1] = details: resistant cells such as HaCaT, Hela and HepG2; cited from earlier work
# collagen gene expression = details: human cancer cells, including fibrosarcomas and breast carcinoma; cited from earlier work
# [2] = test system: Human squamous cell carcinoma line (SCL-1) cells; assay: Cell death in human squamous cell carcinoma line with or without UVB (MTT); assay type: cell-based; details: for % Cell Death with UV: UV alone 22 +/− 0.1
# Method: Determination of Cell Death in Response to 5-azacytidine in Human Squamous Cell Carcinoma Line
# Human squamous cell carcinoma line (SCL-1) cells were grown in DMEM medium with 10% FCS. 5-azacytidine was added at the indicated concentrations after the cells reached 100% confluence. The cultures were incubated for 24 hrs at 37° C. and then washed in Hepes buffer (pH=7.4) with isotonic salt and exposed to UVB radiation. Cell death was determined using MTT [3-(4, 5-dimethylthiazol-2-yl)-2, 5-diphenyltetrazolium bromide] kit obtained from Sigma. Each concentration of the drug was tested in six wells and the degree of inhibition (vs. controls of untreated cultures) was given as an average (% cell death +/−standard deviation).
# The human squamous cells (SCL-1) were grown to about 50% confluence. The cultures were treated with minimal amount of 5-azacytidine, UV radiation, or the combination and cell viability was quantified. […] The exposure of the cells to UV, in the absence of the drug induced a cytotoxic effect in about 22% of the cells. Together, the combination of both UV and 5-azacytidine induced cell death at about 50% of the cancer cells.
# human fibroblasts = assay: Proliferation of human fibroblasts in culture; assay type: cell-based; details: previously found by applicant
# pieces of human skin = assay: Incorporation of labeled proline into pieces of human skin (collagen biosynthesis, skin organ culture); details: for Collagen (DPM/mg tissue): control 333
# alpha 2 collagen gene [3] = details: teratocarcinoma F9 cells; cited from earlier work
# [4] = test system: Pro collagen alpha I gene; details: human rhabdomyosarcoma cells; cited from earlier work
# collagen type IV gene = details: transformed rat liver cells; cited from earlier work
# normal human fibroblasts = assay: Human fibroblasts collagen synthesis assay (14C-proline incorporation, collagenase-labile counts); assay type: cell-based; design: reduction of the amount of collagen synthesized: dose or concentration left out as unconfirmed; details: for Collagen (DPM/cell) with TGF β 1: with TGF β 1 (10 ng/ml), control 9945 +/− 602; for Collagen (DPM/cell) without TGF β 1: control 5267 +/− 1079
# Method: Human Fibroblasts Collagen Synthesis Assay
# Human fibroblasts were grown in DMEM (10% FCS) in 24-wells plates to approximately 50% confluence. 5-azacytidine (from Sigma) was added for 5 hrs of 37° C. TGF-β1 was added (10 ng/ml) for 2 hours (hrs) at 37° C. Then, L-[U-14C]-proline solution (specific radioactivity 269 mCi/mmol) was added (1.25 μCi/well) and incubated for 20 hrs at 37° C. The cells were then washed with 5 mM proline in PBS and 5 mM proline in 70% methanol and incubated at […] for 20 hrs. […] After 20 hrs, the collagenase treated cultures were centrifuged and a new collagenase solution was added to the cells. The cultures were incubated with the enzyme for an additional 20 hrs. Proline incorporated into protein and released by collagenase treatment is defined as “collagen”. Incorporation of labeled proline into collagen was evaluated by scintillation counting of supernatants. In parallel, the cultures were checked for vitality using a 3-(4, 5-dimethylthiazol-2-yl)-2, 5-diphenyltetrazolium bromide (MTT) reaction. Each concentration of 5-azacytidine was analyzed (n=6), and the effect of 5-azacytidine on collagen synthesis were expressed as averaged DPM per number of viable cells +/− standard deviation.
# Human fibroblasts were grown to about 50% confluence and exposed to medium with or without TGF β.
# [5] = Azacytidine 4.8 ug/ml, listed as Azacytidine
smiles,measurement,setting,value
Nc1ncn([C@@H]2O[C@H](CO)[C@@H](O)[C@H]2O)c(=O)n1 [5-azacytidine],effect on alpha 2 collagen gene,alpha 2 collagen gene [1],reactivated
same,effect on collagen gene expression,collagen gene expression,increased or reactivated collagen gene expression
same,% Cell Death with UV,[2]; Azacytidine 0.53 ug/ml,19 +/− 0.5%
same,% Cell Death without UVB,[2]; Azacytidine 0.53 ug/ml,2 +/− 0.7* %
same,% Cell Death with UV,[2]; Azacytidine 1.6 ug/ml,21 +/− 0.6%
same,% Cell Death without UVB,[2]; Azacytidine 1.6 ug/ml,5 +/− 0.3* %
same,% Cell Death with UV,[2]; Azacytidine 4.8 ug/ml,about 50%
same,% Cell Death with UV,[2]; [5],50 +/− 0.2%
same,% Cell Death without UVB,[2]; Azacytidine 4.8 ug/ml,about 29%
same,% Cell Death without UVB,[2]; [5],29 +/− 13* %
same,IC50,"[2]; Homo sapiens, SCL-1, 5-Azacytidine alone (no UV)",11 µg/mL
same,combined effect of photo damage and drug on viability,[2]; UV plus 5-azacytidine,additive effect
same,effect on proliferation of fibroblasts in culture,human fibroblasts,inhibits the proliferation
same,effect on collagen biosynthesis by human skin,pieces of human skin,inhibited collagen biosynthesis in a dose dependent manner
same,% Inhibition of collagen,pieces of human skin; Azacytidine 6.25 ug/ml,40%
same,Collagen (DPM/mg tissue),pieces of human skin; Azacytidine 6.25 ug/ml,199 +/− 34* DPM/mg tissue
same,% Inhibition of collagen,pieces of human skin; Azacytidine 25 ug/ml,48%
same,Collagen (DPM/mg tissue),pieces of human skin; Azacytidine 25 ug/ml,174 +/− 53* DPM/mg tissue
same,% Inhibition of collagen,pieces of human skin; Azacytidine 100 ug/ml,72%
same,Collagen (DPM/mg tissue),pieces of human skin; Azacytidine 100 ug/ml,92 +/− 13* DPM/mg tissue
same,IC50,"pieces of human skin; Homo sapiens, read-out: IC50 of collagen biosynthesis in human skin",~25 µg/mL
same,effect on transcription of alpha 2 collagen gene,alpha 2 collagen gene [3],induces transcription of alpha 2 collagen gene
same,effect on transcription of Pro collagen alpha I gene,[4],transcriptional activation of the Pro collagen alpha I gene
same,effect on transcription of collagen type IV gene,collagen type IV gene,increases transcription of the collagen type IV gene
same,Collagen (DPM/cell) with TGF β 1,normal human fibroblasts; Azacytidine 1 μg/ml,8259 +/− 482 DPM/cell
same,Collagen (DPM/cell) without TGF β 1,normal human fibroblasts; Azacytidine 1 μg/ml,5306 +/− 717 DPM/cell
same,Collagen (DPM/cell) with TGF β 1,normal human fibroblasts; Azacytidine 5 μg/ml,6801 +/− 1359* DPM/cell
same,Collagen (DPM/cell) without TGF β 1,normal human fibroblasts; Azacytidine 5 μg/ml,4015 +/− 706* DPM/cell
same,Collagen (DPM/cell) with TGF β 1,normal human fibroblasts; Azacytidine 25 μg/ml,5183 +/− 816* DPM/cell
same,Collagen (DPM/cell) without TGF β 1,normal human fibroblasts; Azacytidine 25 μg/ml,2323 +/− 139* DPM/cell
same,IC50,"normal human fibroblasts; Fibroblast, stated as similar to the IC50 in human skin, read-out: IC50 of collagen biosynthesis in cultured human fibroblasts",~25 µg/mL
same,effect on TGF β upregulation of collagen biosynthesis,normal human fibroblasts; TGF β stimulated fibroblasts,inhibited in a dose dependent manner the ability of TGF β to upregulate collagen biosynthesis
same,reduction of the amount of collagen synthesized,"normal human fibroblasts; concentration of about 25, basal (without TGF β)",approximately 55%
same,effect on basal collagen produced,normal human fibroblasts; without TGF β,inhibited the collagen produced in a dose dependent manner
